In ChEMBL document CHEMBL2074218, “Effect of P-glycoprotein modulator, cyclosporin A, on the gastrointestinal excretion of irinotecan and its metabolite SN-38 in rats” (Pharm Res, 2003) one finds Activity data, which are given here for 4 compounds.

This data set concerns the target ATP-dependent translocase ABCB1 (Mus musculus, UniProt P21447). The data set is described as follows: TP_TRANSPORTER: transepithelial transport (basal to apical) in Mdr1a-expressing LLC-PK1 cells. It is filed as functional, cell-based. As to conditions: pig.

Chain of ATP-dependent translocase ABCB1 (P21447 whole entry): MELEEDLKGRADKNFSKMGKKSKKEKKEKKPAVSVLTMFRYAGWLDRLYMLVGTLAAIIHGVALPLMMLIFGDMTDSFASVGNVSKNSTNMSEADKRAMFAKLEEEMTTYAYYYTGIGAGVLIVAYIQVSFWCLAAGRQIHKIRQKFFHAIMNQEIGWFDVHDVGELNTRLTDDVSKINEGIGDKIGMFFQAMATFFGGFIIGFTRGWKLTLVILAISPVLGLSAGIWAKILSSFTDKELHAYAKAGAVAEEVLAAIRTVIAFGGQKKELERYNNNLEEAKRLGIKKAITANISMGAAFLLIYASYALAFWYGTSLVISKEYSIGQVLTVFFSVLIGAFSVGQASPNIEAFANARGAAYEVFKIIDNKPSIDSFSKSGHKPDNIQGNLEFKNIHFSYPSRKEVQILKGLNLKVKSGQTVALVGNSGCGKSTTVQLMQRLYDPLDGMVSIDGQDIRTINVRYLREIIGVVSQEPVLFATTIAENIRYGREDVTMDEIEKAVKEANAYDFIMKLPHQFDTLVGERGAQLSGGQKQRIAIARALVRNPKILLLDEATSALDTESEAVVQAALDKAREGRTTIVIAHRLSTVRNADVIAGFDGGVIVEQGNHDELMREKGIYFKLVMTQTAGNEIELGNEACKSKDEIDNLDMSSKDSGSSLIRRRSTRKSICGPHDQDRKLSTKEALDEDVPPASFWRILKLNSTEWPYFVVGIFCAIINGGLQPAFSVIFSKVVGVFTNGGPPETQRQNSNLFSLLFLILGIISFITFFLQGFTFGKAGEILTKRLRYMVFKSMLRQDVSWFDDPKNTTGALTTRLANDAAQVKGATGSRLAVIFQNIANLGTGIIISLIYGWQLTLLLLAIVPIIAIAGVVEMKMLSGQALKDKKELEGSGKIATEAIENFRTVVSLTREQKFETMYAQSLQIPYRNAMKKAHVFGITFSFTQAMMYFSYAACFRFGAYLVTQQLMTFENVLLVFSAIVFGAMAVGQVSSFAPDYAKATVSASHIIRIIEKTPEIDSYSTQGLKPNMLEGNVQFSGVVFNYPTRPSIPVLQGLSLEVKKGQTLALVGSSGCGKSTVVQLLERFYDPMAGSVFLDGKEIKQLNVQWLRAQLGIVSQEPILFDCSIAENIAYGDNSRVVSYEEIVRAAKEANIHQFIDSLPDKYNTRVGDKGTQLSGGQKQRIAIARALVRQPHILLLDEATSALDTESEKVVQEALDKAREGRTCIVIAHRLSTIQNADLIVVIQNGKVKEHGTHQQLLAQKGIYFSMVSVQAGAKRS

On to `CCc1c2c(nc3ccc(OC[C@@H]4O[C@H](C(=O)O)[C@@H](O)[C@H](O)[C@H]4O)cc13)-c1cc3c(c(=O)n1C2)COC(=O)[C@]3(O)CC`, for which the Activity entry is “substrate [+]”.
Regarding `CCc1c2c(nc3ccc(OC(=O)N4CCC(N5CCCCC5)CC4)cc13)-c1cc([C@@](O)(CC)C(=O)O)c(CO)c(=O)n1C2`, the Activity result was “substrate [+]”.
With `CCc1c2c(nc3ccc(O)cc13)-c1cc([C@@](O)(CC)C(=O)O)c(CO)c(=O)n1C2`, the Activity result is “substrate [+]”.
As for `CCc1c2c(nc3ccc(OC(=O)N4CCC(N5CCCCC5)CC4)cc13)-c1cc3c(c(=O)n1C2)COC(=O)[C@]3(O)CC` [IRINOTECAN], the Activity entry is “substrate [+]”.
